Test results from patent US10035760B2, “Inhibitors of human immunodeficiency virus replication” (priority 2013, dated 2018).
Where two headings read alike, the source gives them in different places.

System: recombinant NL4-3 virus (Renilla luciferase) in MT-2 cells
Assay: HIV cell culture assay (antiviral activity, luciferase readout in infected MT-2 cells)
Format: cell-based
Summary of the method: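 EC50 derived via median-effect equation from luciferase activity in MT-2 cells after 4–5 day infection, compound serially diluted. Virus: recombinant NL4-3 with Renilla luciferase replacing part of nef, made in 293T cells.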

[1] = Renilla, NL43, read-out: Activity, antiviral activity class, recombinant NL4-3 Renilla luciferase virus in MT-2 cells
[2] = Renilla, NL43, recombinant NL4-3 Renilla luciferase virus in MT-2 cells

C=CCOc1ccc(N(C)C(=O)[C@H](Cc2ccccc2)NC(=O)NS(=O)(=O)c2ccccc2C)cc1 [Example 216, (S)—N-(4-(allyloxy)phenyl)-N-methyl-3-phenyl-2-(3-(o-tolylsulfonyl)ureido)propanamide]
EC50 [1]: < 100 nM

Cc1ccccc1S(=O)(=O)NC(=O)N[C@@H](Cc1ccc(Cl)cc1Cl)C(=O)N(C)c1ccc2c(c1)OCO2 [Example 74, (S)—N-(benzo[d][1,3]dioxol-5-yl)-3-(2,4-dichlorophenyl)-N-methyl-2-(3-(o-tolylsulfonyl)ureido)propanamide]
EC50 [1]: 1000 to 10000 nM | EC50 [2]: 3880 nM

CCN(C(=O)[C@H](Cc1ccccc1)NC(=O)NS(=O)(=O)c1ccccc1C)c1ccc(C)c(C)c1 [Example 175, (S)—N-(3,4-dimethylphenyl)-N-ethyl-3-phenyl-2-(3-(o-tolylsulfonyl)ureido)propanamide]
EC50 [1]: < 100 nM

Cc1cccc(N(C)C(=O)[C@H](Cc2ccccc2)NC(=O)NS(=O)(=O)c2ccccc2)c1 [Example 90]
EC50 [1]: 100 to 1000 nM

CC(=O)Nc1ccc(C[C@H](NC(=O)NS(=O)(=O)c2ccccc2C)C(=O)N(C)c2ccc3c(c2)OCO3)cc1 [Example 73, (S)-3-(4-acetamidophenyl)-N-(benzo[d][1,3]dioxol-5-yl)-N-methyl-2-(3-(o-tolylsulfonyl)ureido)propanamide]
EC50 [2]: > 100000 nM

Cc1ccccc1S(=O)(=O)NC(=O)N[C@@H](Cc1ccccc1)C(=O)N(C)c1ccc2nccnc2c1 [Example CA-75, (S)—N-methyl-3-phenyl-N-(quinoxalin-6-yl)-2-(3-(o-tolylsulfonyl)ureido)propanamide]
EC50 [1]: 100 to 1000 nM

Cc1ccccc1S(=O)(=O)NC(=O)N[C@@H](Cc1ccccc1)C(=O)N(C)c1ccc2c(c1)OCO2 [Example 2, (S)—N-(benzo[d][1,3]dioxol-5-yl)-N-methyl-3-phenyl-2-(3-(o-tolylsulfonyl)ureido)propanamide]
EC50 [1]: < 100 nM | EC50 [2]: 70 nM

Cc1ccccc1S(=O)(=O)NC(=O)N[C@@H](Cc1ccccc1)C(=O)N(C)Cc1ccccn1 [Example 180, (S)—N-methyl-3-phenyl-N-(pyridin-2-ylmethyl)-2-(3-(o-tolylsulfonyl)ureido)propanamide]
EC50 [1]: 1000 to 10000 nM

C=C(C)c1cccc(S(=O)(=O)NC(=O)N[C@@H](Cc2ccccc2)C(=O)N(CC)c2ccc(OC)cc2)c1 [Example 139, (S)—N-ethyl-N-(4-methoxyphenyl)-3-phenyl-2-(3-((3-(prop-en-2-yl)phenyl)sulfonyl)ureido)propanamide]
EC50 [1]: < 100 nM

Cc1ccccc1S(=O)(=O)NC(=O)N[C@H](CCc1ccccc1)C(=O)N(C)c1ccc2c(c1)OCO2 [Example 210, (R)—N-(benzo[d][1,3]dioxol-5-yl)-N-methyl-4-phenyl-2-(3-(o-tolylsulfonyl)ureido)butanamide]
EC50 [1]: 10000 to 100000 nM

CN(C(=O)[C@H](Cc1ccccc1)NC(=O)NS(=O)(=O)c1ccccc1Br)c1ccc2c(c1)OCO2 [Example 29, (S)—N-(benzo[d][1,3]dioxol-5-yl)-2-(3-((2-bromophenyl)sulfonyl)ureido)-N-methyl-3-phenylpropanamide]
EC50 [1]: < 100 nM

Cc1ccccc1S(=O)(=O)NC(=O)N[C@@H](Cc1cc(F)cc(F)c1)C(=O)N(C)c1cccc2ncccc12 [Example CA-109, (S)-3-(3,5-difluorophenyl)-N-methyl-N-(quinolin-5-yl)-2-(3-(o-tolylsulfonyl)ureido)propanamide]
EC50 [1]: 100 to 1000 nM | EC50 [2]: 370 nM

CCN(CC)CCN(C)C(=O)[C@H](Cc1ccccc1)NC(=O)NS(=O)(=O)c1ccccc1 [Example 96, (S)—N-(2-(diethylamino)ethyl)-N-methyl-3-phenyl-2-(3-(phenylsulfonyl)ureido)propanamide]
EC50 [2]: > 100000 nM

(S)—N-((1-(3,3-dimethylazetidin-1-yl)-1-oxo-3-phenylpropan-2-yl)carbamoyl)-2-methylbenzenesulfonamide [Example 191]
EC50 (recombinant NL4-3 Renilla luciferase virus in MT-2 cells, read-out: EC50): > 100000 nM

CN(C(=O)[C@H](Cc1ccccc1)NC(=O)NS(=O)(=O)c1ccccc1)c1ccc2c(c1)OC(F)(F)O2 [Example 36, (S)—N-(2,2-difluorobenzo[d][1,3]dioxol-5-yl)-N-methyl-3-phenyl-2-(3-(phenylsulfonyl)ureido)propanamide]
EC50 [1]: 1000 to 10000 nM

CN(C(=O)[C@H](Cc1ccccc1)NC(=O)NS(=O)(=O)c1ccccc1Cl)c1ccc2c(c1)OCO2 [Example 7, (S)—N-(benzo[d][1,3]dioxol-5-yl)-2-(3-((2-chlorophenyl)sulfonyl)ureido)-N-methyl-3-phenylpropanamide]
EC50 [1]: < 100 nM

CC(C)CS(=O)(=O)NC(=O)N[C@@H](Cc1ccccc1)C(=O)N(C)c1ccc2c(c1)OCO2 [Example 45, (S)—N-(benzo[d][1,3]dioxol-5-yl)-2-(3-(isobutylsulfonyl)ureido)-N-methyl-3-phenylpropanamide]
EC50 [1]: 100 to 1000 nM

Cc1ccc(F)cc1S(=O)(=O)NC(=O)N[C@@H](Cc1ccccc1)C(=O)N(C)c1ccc2c(c1)OCO2 [Example 16, (S)—N-(benzo[d][1,3]dioxol-5-yl)-2-(3-((5-fluoro-2-methylphenyl)sulfonyl)ureido)-N-methyl-3-phenylpropanamide]
EC50 [1]: < 100 nM

CN(C(=O)[C@H](Cc1ccccc1)NC(=O)NS(=O)(=O)c1ccccc1)c1ccc2c(c1)CCC2 [Example 208, (S)—N-(2,3-dihydro-1H-inden-5-yl)-N-methyl-3-phenyl-2-(3-(phenylsulfonyl)ureido)propanamide]
EC50 [1]: 100 to 1000 nM

CCN(C(=O)[C@H](Cc1ccccc1)NC(=O)NS(=O)(=O)c1ccccc1C)c1ccc(Cl)cc1 [Example 181, (S)—N-(4-chlorophenyl)-N-ethyl-3-phenyl-2-(3-(o-tolylsulfonyl)ureido)propanamide]
EC50 [1]: 100 to 1000 nM

CN(C(=O)[C@H](Cc1ccccc1)NC(=O)NS(=O)(=O)c1ccccc1Cl)c1ccc2c(c1)CCC2 [Example 206, (S)-2-(3-((2-chlorophenyl)sulfonyl)ureido)-N-(2,3-dihydro-1H-inden-5-yl)-N-methyl-3-phenylpropanamide]
EC50 [1]: < 100 nM

CCN(C(=O)[C@H](Cc1ccccc1)NC(=O)NS(=O)(=O)c1cccc(-c2ccsc2)c1C)c1ccc(OC)cc1 [Example 157, (S)—N-ethyl-N-(4-methoxyphenyl)-2-(3-((2-methyl-3-(thiophen-3-yl)phenyl)sulfonyl)ureido)-3-phenylpropanamide]
EC50 [1]: 100 to 1000 nM

CCN(C(=O)[C@H](Cc1ccccc1)NC(=O)NS(=O)(=O)c1ccccc1F)c1ccc(OC)cc1 [Example 117, (S)—N-ethyl-2-(3-((2-fluorophenyl)sulfonyl)ureido)-N-(4-methoxyphenyl)-3-phenylpropanamide]
EC50 [1]: < 100 nM

Cc1ccccc1S(=O)(=O)NC(=O)N[C@H](C(=O)N(C)c1ccc2c(c1)OCO2)[C@@H](C)c1ccccc1 [Example 65, (2S,3S)—N-(benzo[d][1,3]dioxol-5-yl)-N-methyl-3-phenyl-2-(3-(o-tolylsulfonyl)ureido)butanamide]
EC50 [1]: 1000 to 10000 nM | EC50 [2]: 6830 nM

Cc1ccccc1S(=O)(=O)NC(=O)N[C@@H](Cc1cccc(C(N)=O)c1)C(=O)N(C)c1ccc2c(c1)OCO2 [Example 80, (S)-3-(3-(benzo[d][1,3]dioxol-5-yl(methyl)amino)-3-oxo-2-(3-(o-tolylsulfonyl)ureido)propyl)benzamide]
EC50 [2]: > 100000 nM

CCc1ccccc1S(=O)(=O)NC(=O)N[C@@H](Cc1ccccc1)C(=O)N(C)c1ccc2c(c1)OCO2 [Example 146, (S)—N-(benzo[d][1,3]dioxol-5-yl)-2-(3-((2-ethylphenyl)sulfonyl)ureido)-N-methyl-3-phenylpropanamide]
EC50 [1]: < 100 nM

Cc1ccccc1S(=O)(=O)NC(=O)N[C@@H](Cc1cc(F)cc(F)c1)C(=O)N(C)c1cccc(Cl)c1 [Example CA-111, (S)—N-(3-chlorophenyl)-3-(3,5-difluorophenyl)-N-methyl-2-(3-(o-tolylsulfonyl)ureido)propanamide]
EC50 [1]: 1000 to 10000 nM

CCN(C(=O)[C@H](Cc1ccccc1)NC(=O)NS(=O)(=O)c1cccc(-c2ccnn2CC(C)C)c1C)c1ccc(OC)cc1 [Example 214, (S)—N-ethyl-2-(3-((3-(1-isobutyl-1H-pyrazol-5-yl)-2-methylphenyl)sulfonyl)ureido)-N-(4-methoxyphenyl)-3-phenylpropanamide]
EC50 [1]: 100 to 1000 nM | EC50 [2]: 870 nM

CCN(C(=O)[C@H](Cc1ccccc1)NC(=O)NS(=O)(=O)c1ccccc1C)c1ccc(O)c(NC=O)c1 [Example CA-89, (S)—N-ethyl-N-(3-formamido-4-hydroxyphenyl)-3-phenyl-2-(3-(o-tolylsulfonyl)ureido)propanamide]
EC50 [1]: 100 to 1000 nM | EC50 [2]: 600 nM

(S)-2-(3-([1,1′-biphenyl]-2-ylsulfonyl)ureido)-N-(benzo[d][1,3]dioxol-5-yl)-N-methyl-3-phenylpropanamide [Example 48]
EC50 (antiviral activity class, recombinant NL4-3 Renilla luciferase virus in MT-2 cells, read-out: Activity): 1000 to 10000 nM

COC(=O)Nc1ccc(N(C)C(=O)[C@H](Cc2ccccc2)NC(=O)NS(=O)(=O)c2ccccc2C)cc1 [Example CA-93, (S)-methyl (4-(N-methyl-3-phenyl-2-(3-(o-tolylsulfonyl)ureido)propanamido)phenyl)carbamate]
EC50 [1]: < 100 nM

Cc1ccc(C[C@H](NC(=O)NS(=O)(=O)c2ccccc2C)C(=O)N(C)c2ccc3c(c2)OCO3)cc1 [Example 72, (S)—N-(benzo[d][1,3]dioxol-5-yl)-N-methyl-3-(p-tolyl)-2-(3-(o-tolylsulfonyl)ureido)propanamide]
EC50 [1]: 100 to 1000 nM | EC50 [2]: 580 nM

CN(C(=O)[C@H](Cc1ccccc1)NC(=O)NS(=O)(=O)c1ccccc1-c1cncnc1)c1ccc2c(c1)OCO2 [Example 127, (S)—N-(benzo[d][1,3]dioxol-5-yl)-N-methyl-3-phenyl-2-(3-((2-(pyrimidin-5-yl)phenyl)sulfonyl)ureido)propanamide]
EC50 [1]: 10000 to 100000 nM | EC50 [2]: 21700 nM
